Data reported in patent US12527794B2, “Compositions, formulations, and methods for hair treatment” (Oddity Labs, LLC, priority 2021, dated 2026).

Test system: human hair follicle dermal papilla cells (hFDPC)
Assay: Human follicle dermal papilla cell (hFDPC) proliferation, cell viability assay
Type: cell-based
Settings: hFDPCs supplemented with BIO, BMP-2 and FGFβ
Procedure: The ability of a compound or salt of the present disclosure to increase proliferation of human hair follicle dermal papilla cells (hFDPC) was tested using a cell viability assay, such as the Promega CellTiter-Glo® Luminescent Cell Viability Assay, MTT cell proliferation assay (ATCC® 30-1010K) or cell counting. […] In Table 8, A represents less than 20% of increased proliferation of hFDPCs, B represents 20-40%, and C represents larger than 40% of increased proliferation of hFDPCs. For this assay, hFDPCs were cultured on tissue culture-treated plastic and supplemented with 6-bromoindirubin-39-Oxime (BIO), recombinant bone morphogenetic protein-2 (BMP-2), and basic fibroblast growth factor (FGFβ), whose combination was previously found to preserve in situ dermal papilla gene signatures.

SMILES | Percent Increase Proliferation of hFDPCs (%)
CCC(C)Cc1c(C)sc2[nH]c(SCc3cc(=O)oc4cc(O)ccc34)nc(=O)c12 (stereo not shown) [IV-4, Thieno[2,3-d]pyrimidin-4(1H)-one, 2-[[(7-hydroxy-2-oxo-2H-1-benzopyran-4-yl)methyl]thio]-6-methyl-5-(2-methylbutyl)-] | A (A represents less than 20% of increased proliferation of hFDPCs)
O=C(O)CC1SC(NN=Cc2ccc(OS(=O)(=O)c3ccc([N+](=O)[O-])cc3)cc2)=NC1=O (stereo not shown) [VI-6, 5-Thiazoleacetic acid, 4,5-dihydro-2-[2-[[4-[[(4-nitrophenyl)sulfonyl]oxy]phenyl]methylene] hydrazinyl]-4-oxo-] | A (A represents less than 20% of increased proliferation of hFDPCs)
C=CCc1cc(/C=C2\C(=O)NC(=O)N(c3cc(C)cc(C)c3)C2=O)cc(OC)c1O [Compound I-3, 2,4,6(1H,3H,5H)-Pyrimidinetrione, 1-(3,5-dimethylphenyl)-5-[[4-hydroxy-3-methoxy-5-(2-propen-1-yl)phenyl]methylene]-] | A (A represents less than 20% of increased proliferation of hFDPCs)
O=C1CNCc2[nH]c3ccccc3c2N1c1ccccc1 [VII-10, 1,4-Diazepino[6,5-b] indol-2(1H)-one, 3,4,5,6-tetrahydro-1-phenyl-] | B (B represents 20-40%)
COc1cc(/C=C2\C(=O)NC(=O)N(Cc3ccccc3)C2=O)cc(OC)c1O [Compound I-5, 2,4,6(1H,3H,5H)-Pyrimidinetrione, 5-[(4-hydroxy-3,5-dimethoxyphenyl)methylene]-1-(phenylmethyl)-] | B (B represents 20-40%)
C=CCOc1ccc(/C=C2/C(=O)NC(=O)N(CC=C)C2=O)cc1OC [Compound I-7, 2,4,6(1H,3H,5H)-Pyrimidinetrione, 5-[[3-methoxy-4-(2-propen-1-yloxy)phenyl]methylene]-1-(2-propen-1-yl)-] | A (A represents less than 20% of increased proliferation of hFDPCs)
COc1ccc(/C=C2\C(=O)NC(=O)N(C)C2=O)c(OC)c1 [Compound I-11, 2,4,6(1H,3H,5H)-Pyrimidinetrione, 5-[(2,4-dimethoxyphenyl)methylene]-1-methyl-, (5E)-] | A (A represents less than 20% of increased proliferation of hFDPCs)
C=CCc1cc(C=C2C(=O)NC(=S)NC2=O)cc(OC)c1O [Compound I-9, 4,6(1H,5H)-Pyrimidinedione, dihydro-5-[[4-hydroxy-3-methoxy-5-(2-propen-1-yl)phenyl]methylene]-2-thioxo-] | B (B represents 20-40%)
CC(C)(C)Nc1nnc(SCc2cc(=O)oc3cc(O)ccc23)s1 [IV-1, 2H-1-Benzopyran-2-one, 4-[[[5-[(1,1-dimethylethyl)amino]-1,3,4-thiadiazol-2-yl]thio]methyl]-7-hydroxy-] | B (B represents 20-40%)
C=CCc1cc(/C=C2\C(=O)NC(=O)N(C)C2=O)cc(OC)c1O [Compound I-16, 2,4,6(1H,3H,5H)-Pyrimidinetrione, 5-[[4-hydroxy-3-methoxy-5-(2-propen-1-yl)phenyl]methylene]-1-methyl-] | A (A represents less than 20% of increased proliferation of hFDPCs)
CCOCCc1nnc(NC(=O)c2cc(-c3ccccc3)nc3ccccc23)s1 [III-4, 4-Quinolinecarboxamide, N-[5-(2-ethoxyethyl)-1,3,4-thiadiazol-2-yl]-2-phenyl-] | B (B represents 20-40%)
C=CCc1cc(/C=C2\C(=O)NC(=S)N(C)C2=O)cc(OC)c1OCC [Compound I-10, 4,6(1H,5H)-Pyrimidinedione, 5-[[4-ethoxy-3-methoxy-5-(2-propen-1-yl)phenyl]methylene]dihydro-1-methyl-2-thioxo-] | A (A represents less than 20% of increased proliferation of hFDPCs)
COc1ccc(CC(=O)Nc2sc3c(c2C(=O)Nc2cccc([N+](=O)[O-])c2)CCC(C)C3)cc1 (stereo not shown) [VII-22, Benzo[b]thiophene-3-carboxamide, 4,5,6,7-tetrahydro-2-[[2-(4-methoxyphenyl)acetyl]amino]-6-methyl-N-(3-nitrophenyl)-] | A (A represents less than 20% of increased proliferation of hFDPCs)
CN1C(=O)NC(=O)/C(=C\c2cccc(OCC(=O)O)c2)C1=O [Compound I-14, Acetic acid, 2-[3-[(tetrahydro-1-methyl-2,4,6-trioxo-5(2H)-pyrimidinylidene)methyl]phenoxy]-] | A (A represents less than 20% of increased proliferation of hFDPCs)
CCCCN1CCc2cc(/C=C3\C(=O)NC(=O)N(C)C3=O)ccc21 [Compound I-12, 2,4,6(1H,3H,5H)-Pyrimidinetrione, 5-[(1-butyl-2,3-dihydro-1H-indol-5-yl)methylene]-1-methyl-] | B (B represents 20-40%)
C=CCN1C(=O)NC(=O)/C(=C\c2ccc(OC)cc2OC)C1=O [Compound I-6, 2,4,6(1H,3H,5H)-Pyrimidinetrione, 5-[(2,4-dimethoxyphenyl)methylene]-1-(2-propen-1-yl)-] | A (A represents less than 20% of increased proliferation of hFDPCs)
C=CCc1cc(/C=C2\C(=O)NC(=O)N(c3ccc(C)c(C)c3)C2=O)cc(OC)c1O [Compound I-4, 2,4,6(1H,3H,5H)-Pyrimidinetrione, 1-(3,4-dimethylphenyl)-5-[[4-hydroxy-3-methoxy-5-(2-propen-1-yl)phenyl]methylene]] | A (A represents less than 20% of increased proliferation of hFDPCs)
Cc1cccc(Cn2cnc(NC(=O)c3cc(-c4cccnc4)nc4ccc(C)cc34)n2)c1 [III-2, 4-Quinolinecarboxamide, 6-methyl-N-[1-[(3-methylphenyl)methyl]-1H-1,2,4-triazol-3-yl]-2-(3-pyridinyl)-] | A (A represents less than 20% of increased proliferation of hFDPCs)
C=CCc1cc(/C=C2\C(=O)NC(=O)N(c3cc(C)cc(C)c3)C2=O)cc(OCC)c1O [Compound I-2, 2,4,6(1H,3H,5H)-Pyrimidinetrione, 1-(3,5-dimethylphenyl)-5-[[3-ethoxy-4-hydroxy-5-(2-propen-1-yl)phenyl]methylene]-] | B (B represents 20-40%)
C=CCc1cc(C=C2C(=O)NC(=S)NC2=O)cc(OCC)c1O [Compound I-8, 4,6(1H,5H)-Pyrimidinedione, 5-[[3-ethoxy-4-hydroxy-5-(2-propen-1-yl)phenyl]methylene]dihydro-2-thioxo-] | B (B represents 20-40%)
COc1cc([N+](=O)[O-])cc(/C=C2\C(=O)NC(=O)N(C)C2=O)c1O [Compound I-15, 2,4,6(1H,3H,5H)-Pyrimidinetrione, 5-[(2-hydroxy-3-methoxy-5-nitrophenyl)methylene]-1-methyl-] | B (B represents 20-40%)
C=CCc1cc(/C=C2\C(=O)NC(=O)N(c3ccc(C(C)C)cc3)C2=O)cc(OC)c1O [Compound I-1, 2,4,6(1H,3H,5H)-Pyrimidinetrione, 5-[[4-hydroxy-3-methoxy-5-(2-propen-1-yl)phenyl]methylene]-1-[4-(1-methylethyl)phenyl]-] | A (A represents less than 20% of increased proliferation of hFDPCs)
